Results published in patent US11584744B2 (UNIVERSITY OF WASHINGTON, priority 2017, dated 2023).
Values after ≈ are worked out from the molar mass of the structure shown. Like-named read-outs stand apart in the source and are kept apart here.

How the values were obtained:
T. brucei = T. brucei growth inhibition; type: cell-based, Trypanosoma brucei; details: Trypanosoma brucei; read-out: (D) T. brucei EC50
MetRS (T. brucei) = biological target: T1, MetRS (T. brucei) (Trypanosoma brucei brucei, UniProt Q38C91); assay: MetRS (T. brucei) enzyme inhibition; type: biochemical
T1 sequence (Q38C91 1-773): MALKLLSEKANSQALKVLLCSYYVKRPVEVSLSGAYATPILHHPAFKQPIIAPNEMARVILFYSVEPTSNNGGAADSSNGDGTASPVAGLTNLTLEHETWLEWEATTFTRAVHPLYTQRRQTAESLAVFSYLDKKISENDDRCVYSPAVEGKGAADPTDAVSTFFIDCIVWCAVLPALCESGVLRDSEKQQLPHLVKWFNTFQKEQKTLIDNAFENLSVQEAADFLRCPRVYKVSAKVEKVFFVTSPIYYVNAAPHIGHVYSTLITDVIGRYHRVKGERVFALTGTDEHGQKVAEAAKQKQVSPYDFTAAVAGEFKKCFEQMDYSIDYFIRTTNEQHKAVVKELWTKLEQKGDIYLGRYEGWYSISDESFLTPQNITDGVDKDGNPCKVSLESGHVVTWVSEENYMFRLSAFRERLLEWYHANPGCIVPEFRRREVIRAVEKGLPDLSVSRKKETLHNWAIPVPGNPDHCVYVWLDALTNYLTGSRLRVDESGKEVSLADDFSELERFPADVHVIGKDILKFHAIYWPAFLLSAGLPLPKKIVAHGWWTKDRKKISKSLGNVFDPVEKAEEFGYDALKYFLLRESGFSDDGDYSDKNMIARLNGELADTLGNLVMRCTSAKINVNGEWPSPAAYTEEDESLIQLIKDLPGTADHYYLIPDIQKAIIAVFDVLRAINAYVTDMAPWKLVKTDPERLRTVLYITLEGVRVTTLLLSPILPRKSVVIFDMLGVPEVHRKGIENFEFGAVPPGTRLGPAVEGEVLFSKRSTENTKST

MetRS (C. parvum) = MetRS (C. parvum) (Cryptosporidium parvum, UniProt Q5CVN0); assay: MetRS (C. parvum) enzyme inhibition; type: biochemical; details: read-out: (C) MetRS (C. parvum) IC50
Chain of MetRS (C. parvum) (Q5CVN0 entry or part of it): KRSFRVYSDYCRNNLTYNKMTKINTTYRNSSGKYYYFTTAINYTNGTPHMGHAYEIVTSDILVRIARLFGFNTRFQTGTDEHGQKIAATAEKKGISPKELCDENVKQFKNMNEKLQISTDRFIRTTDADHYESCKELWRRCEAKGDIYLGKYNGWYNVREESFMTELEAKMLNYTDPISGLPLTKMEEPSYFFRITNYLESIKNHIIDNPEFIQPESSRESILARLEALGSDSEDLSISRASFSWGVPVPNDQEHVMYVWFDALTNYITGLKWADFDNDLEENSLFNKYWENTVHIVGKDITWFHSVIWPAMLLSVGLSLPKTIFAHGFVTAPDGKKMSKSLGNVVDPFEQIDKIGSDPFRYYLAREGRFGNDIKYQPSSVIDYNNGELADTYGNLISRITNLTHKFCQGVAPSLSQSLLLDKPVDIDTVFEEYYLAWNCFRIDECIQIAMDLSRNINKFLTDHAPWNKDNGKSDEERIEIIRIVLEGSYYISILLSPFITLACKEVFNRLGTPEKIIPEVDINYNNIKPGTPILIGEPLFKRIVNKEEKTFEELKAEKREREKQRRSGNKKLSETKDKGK

T. cruzi = T. cruzi growth inhibition; type: cell-based, Trypanosoma cruzi; details: read-out: (E) T. cruzi EC50
[1] = test system: S. aureus MSSA (ATCC 29213); assay: MIC susceptibility testing; type: cell-based, Staphylococcus aureus; details: S. aureus ATCC 29213; for MIC: Staphylococcus aureus, read-out: (F) S. aureus (ATCC 29213) MIC
From the text: Media and culture conditions. Mueller Hinton broth (MHB), cation adjusted Mueller Hinton broth (CA-MHB), and Brain Heart Infusion broth (BHI) were purchased from Becton Dickinson (Franklin Lakes, N.J.). Tryptic soy agar (TSA) plates, TSA with 5% sheep blood plates, and CA-MHB with 3% laked horse blood were purchased from Remel (San Diego, Calif.). MHB was used to assay all Staphylococcus aureus strains. CA-MHB was used for Staphylococcus epidermidis, Enterococcus faecalis, Enterococcus faecium, Escherichia coli, and Pseudomonas aeruginosa. CA-MHB supplemented with 3% laked horse blood was used for Streptococcus pneumoniae and Streptococcus pyogenes. Staphylococcus, Enterococcus, Escherichia, and Pseudomonas strains were cultured at 37° C. with ambient air. Streptococcus strains were cultured in 37° C. with 5% CO2. Separate conditions for radiolabeled precursor uptake assays are described below.
Susceptibility testing: Minimum inhibitory concentration (MIC) determinations were performed in triplicate in 96-well round bottom microtiter plates (Corning, Corning N.Y.) as described by the Clinical and Laboratory Standards Institute (CLSI). Serial two-fold dilutions of compounds were added to plates in 50 μL volumes. An additional 50 μL of media containing bacterial cells (1×10^6 CFUs/mL) was then added to each well. Maximum DMSO concentrations were 0.5%. Plates were incubated at 37° C. for at least 18 h before reading the susceptibility result by optical absorbance (OD600) using a BioTek ELx800. The lowest concentration causing ≥90% growth inhibition compared to the untreated control was recorded as the MIC (and also corresponded to the visual MIC). MICs were measured at least twice and the higher value (if different) was recorded herein.

| EC50 (T. brucei) [nM] | IC50 (MetRS (T. brucei)) [nM] | IC50 (MetRS (C. parvum)) [nM] | EC50 (T. cruzi; Trypanosoma cruzi) [nM] | EC50 (T. cruzi) [nM] | MIC [1] [µg/mL] | (F) S. aureus (ATCC 29213) MIC [1] [µg/mL] | SMILES |
| --- | --- | --- | --- | --- | --- | --- | --- |
| 364 | < 40 | 614 | – | – | – | – | COc1ccc(-c2cccn3c(S(C)(=O)=O)c(Cc4nc5nc(Cl)ccc5[nH]4)nc23)c(Cl)c1 [Compound 2151, 2-({5-chloro-1H-imidazo[4,5-b]pyridin-2-yl}methyl)-8-(2-chloro-4-methoxyphenyl)-3-methanesulfonylimidazo[1,2-a]pyridine] |
| > 200 | < 40 | 107 | – | – | – | – | Clc1ccc(Cc2cn(Cc3nc4nc(Cl)ccc4[nH]3)c(SCc3ccccn3)n2)c(Cl)c1 [Compound 2157, 2-({[1-({5-chloro-1H-imidazo[4,5-b]pyridin-2-yl}methyl)-4-[(2,4-dichlorophenyl)methyl]-1H-imidazol-2-yl]sulfanyl}methyl)pyridine] |
| – | – | – | 32.2 | 41.4 | 0.422 (≈ 0.934 µM) | – | COc1ccc(Cc2cn(Cc3nc4nc(F)ccc4[nH]3)c(=O)n2CC(F)F)c(Cl)c1 [Compound 2259, 4-[(2-chloro-4-methoxyphenyl)methyl]-3-(2,2-difluoroethyl)-1-({5-fluoro-1H-imidazo[4,5-b]pyridin-2-yl}methyl)-2,3-dihydro-1H-imidazol-2-one] |
| > 2000 | – | – | – | – | > 2 | – | COc1cc(Cl)c(-c2cccc3nc(Nc4nc5nc(F)ccc5[nH]4)cn23)cc1OC [Compound 2267, 5-(2-chloro-4,5-dimethoxyphenyl)—N-{5-fluoro-1H-imidazo[4,5-b]pyridin-2-yl}imidazo[1,2-a]pyridin-2-amine] |
| 186 | – | – | – | – | 0.69 (≈ 1.55 µM) | 0.345 | Oc1cc(-c2cccc3nc(Cc4nc5nc(Cl)ccc5[nH]4)cn23)c(Cl)cc1Cl [Compound 2268, 2,4-dichloro-5-[2-({5-chloro-1H-imidazo[4,5-b]pyridin-2-yl}methyl)imidazo[1,2-a]pyridin-5-yl]phenol] |
| 102 | – | – | – | – | 1.77 (≈ 3.74 µM) | 1.44 | CCOc1cc(-c2cccc3nc(Cc4nc5nc(Cl)ccc5[nH]4)cn23)c(Cl)cc1Cl [Compound 2269, 2-({5-chloro-1H-imidazo[4,5-b]pyridin-2-yl}methyl)-5-(2,4-dichloro-5-ethoxyphenyl)imidazo[1,2-a]pyridine] |
| < 0.91 | – | – | – | – | – | – | CCn1c(Cc2cc(OC)c(OC)cc2Cl)cn(Cc2nc3nc(Cl)ccc3[nH]2)c1=O [Compound 2275, 1-({5-chloro-1H-imidazo[4,5-b]pyridin-2-yl}methyl)-4-[(2-chloro-4,5-dimethoxyphenyl)methyl]-3-ethyl-2,3-dihydro-1H-imidazol-2-one] |
| > 2000 | – | – | – | – | – | – | CCn1c(Cc2ccc(OC)cc2Cl)cn(Cc2nc3cnc(Cl)nc3[nH]2)c1=O [Compound 2286, 4-[(2-chloro-4-methoxyphenyl)methyl]-1-[(2-chloro-7H-purin-8-yl)methyl]-3-ethyl-2,3-dihydro-1H-imidazol-2-one] |

The next lines start with the compound.

| SMILES | EC50 (T. brucei) [nM] | IC50 (MetRS (T. brucei)) [nM] | IC50 (MetRS (C. parvum)) [nM] | EC50 (T. cruzi; Trypanosoma cruzi) [nM] | EC50 (T. cruzi) [nM] | MIC [1] [µg/mL] | (F) S. aureus (ATCC 29213) MIC [1] [µg/mL] |
| --- | --- | --- | --- | --- | --- | --- | --- |
| CSc1ncc(Cc2ccc(Cl)cc2Cl)n1Cc1nc2nc(Cl)ccc2[nH]1 [Compound 2113, 1-({5-chloro-1H-imidazo[4,5-b]pyridin-2-yl}methyl)-5-[(2,4-dichlorophenyl)methyl]-2-(methylsulfanyl)-1H-imidazole] | 1930 | 2000 | > 1000 | – | – | – | – |
| CCn1c(Cc2ccc(Cl)cc2Cl)cn(CCc2nc3ccc(F)nc3[nH]2)c1=O [Compound 2121, 4-[(2,4-dichlorophenyl)methyl]-3-ethyl-1-(2-{5-fluoro-1H-imidazo[4,5-b]pyridin-2-yl}ethyl)-2,3-dihydro-1H-imidazol-2-one] | 1340 | 41 | 476 | – | – | – | – |
| FC(F)(F)c1ccc(-c2cccc3nc(Cc4nc5nc(Cl)ccc5[nH]4)cn23)c(Cl)c1 [Compound 2126, 2-({5-chloro-1H-imidazo[4,5-b]pyridin-2-yl}methyl)-5-[2-chloro-4-(trifluoromethyl)phenyl]imidazo[1,2-a]pyridine] | 1780 | 40 | > 1000 | – | – | – | – |
| Fc1ccc2[nH]c(Cc3cn4c(-c5ccc(C(F)(F)F)cc5Cl)cccc4n3)nc2n1 [Compound 2127, 5-[2-chloro-4-(trifluoromethyl)phenyl]-2-({5-fluoro-1H-imidazo[4,5-b]pyridin-2-yl}methyl)imidazo[1,2-a]pyridine] | > 2000 | 63 | > 1000 | – | – | – | – |
| Clc1cc(Cl)cc(-c2cccc3nc(Cc4nc5nc(Cl)ccc5[nH]4)cn23)c1 [Compound 2130, 2-({5-chloro-1H-imidazo[4,5-b]pyridin-2-yl}methyl)-5-(3,5-dichlorophenyl)-imidazo[1,2-a]pyridine] | 196 | 190 | > 1000 | – | – | – | – |
| Fc1ccc2[nH]c(Cc3cn4c(-c5cc(Cl)cc(Cl)c5)cccc4n3)nc2n1 [Compound 2131, 5-(3,5-dichlorophenyl)-2-({5-fluoro-1H-imidazo[4,5-b]pyridin-2-yl}methyl)-imidazo[1,2-a]pyridine] | 197 | 325 | 806 | – | – | – | – |
| COc1cc(Cl)c(-c2cccc3nc(Cc4nc5nc(Cl)ccc5[nH]4)cn23)cc1Cl [Compound 2132, 2-({5-chloro-1H-imidazo[4,5-b]pyridin-2-yl}methyl)-5-(2,5-dichloro-4-methoxyphenyl)imidazo[1,2-a]pyridine] | 508 | < 40 | 656 | – | – | – | – |
| COc1cc(Cl)c(-c2cccc3nc(Cc4nc5nc(F)ccc5[nH]4)cn23)cc1Cl [Compound 2133, 5-(2,5-dichloro-4-methoxyphenyl)-2-({5-fluoro-1H-imidazo[4,5-b]pyridin-2-yl}methyl)imidazo[1,2-a]pyridine] | 849 | < 40 | 354 | – | – | – | – |
| CCn1c(Cc2ccc(Cl)cc2Cl)cn(C(C)c2nc3ccc(Cl)nc3[nH]2)c1=O (stereo not shown) [Compound 2142, 1-(1-{5-chloro-1H-imidazo[4,5-b]pyridin-2-yl}ethyl)-4-[(2,4-dichlorophenyl)-methyl]-3-ethyl-2,3-dihydro-1H-imidazol-2-one] | 489 | < 40 | 89.4 | – | – | – | – |
| CCn1c(Cc2ccc(Cl)cc2Cl)cn(C(C)c2nc3nc(F)ccc3[nH]2)c1=O (stereo not shown) [Compound 2143, 4-[(2,4-dichlorophenyl)methyl]-3-ethyl-1-(1-{5-fluoro-1H-imidazo[4,5-b]pyridin-2-yl}ethyl)-2,3-dihydro-1H-imidazol-2-one] | 806 | < 40 | 96.6 | – | – | – | – |
| COc1ccc(-c2cccn3cc(Cc4nc5nc(F)ccc5[nH]4)nc23)c(Cl)c1 [Compound 2148, 8-(2-chloro-4-methoxyphenyl)-2-({5-fluoro-1H-imidazo[4,5-b]pyridin-2-yl}methyl)imidazo[1,2-a]pyridine] | > 2000 | 60 | 993 | – | – | – | – |
| COc1ccc(-c2cccn3cc(Cc4nc5nc(Cl)ccc5[nH]4)nc23)c(Cl)c1 [Compound 2149, 2-({5-chloro-1H-imidazo[4,5-b]pyridin-2-yl}methyl)-8-(2-chloro-4-methoxyphenyl)imidazo[1,2-a]pyridine] | > 2000 | 45 | > 1000 | – | – | – | – |
| COc1ccc(-c2cccn3c(SC)c(Cc4nc5nc(Cl)ccc5[nH]4)nc23)c(Cl)c1 [Compound 2150, 2-({5-chloro-1H-imidazo[4,5-b]pyridin-2-yl}methyl)-8-(2-chloro-4-methoxyphenyl)-3-(methylsulfanyl)imidazo[1,2-a]pyridine] | 897 | < 40 | 468 | – | – | – | – |
